Key:
NASH mouse model [1] = experiment: Periportal inflammation score in the AMLN-diet NASH mouse model (H&E inflammatory foci); assay type: in vivo, male C57BL/6JRj mice; settings: 8 weeks oral dosing after high-fat (AMLN) diet; Compound #157 7 or 20 mg/kg twice daily; OCA 30 mg/kg once daily; FIG. 1
Experimental: (§1) Mice were fed with a high-fat diet for 30 weeks and then treated by oral administration, twice daily with either compound #157 or once daily with OCA for 8 weeks. Effects on portal/periportal inflammation and fibrosis and on lobular inflammation were determined before treatment and upon study completion.
(§2) Five week old, male C57BL/6JRj mice were fed either chow diet (Altromin 1324, Brogaarden, Denmark) or AMLN diet (40% total fat kcal of which 18.5% were trans-fat kcal, 20% fructose, 2% cholesterol; Research Diets #D09100301). This diet was maintained for 29 weeks prior to study initiation.
Three weeks prior to study initiation, liver biopsies were taken and animals with steatosis grade <2 and fibrosis stage <1 were deselected from the study. Prior to first administration of test article, stratified randomization of mice into treatment groups was performed according to collagen 1a1 (IHC) morphometry from the week -3 biopsies. […]
(§3) At termination, right medial and/or left lateral lobes of the liver (>50% of each lobe harvested) were excised and fixed in 10% neutral-buffered formalin (at least 7 days at room temperature). […] NAFLD and NASH were scored by use of criteria outlined by Kleiner et al. Hepatology 41, p. […]
Inflammation was evaluated by counting the number of hematoxylin and eosin (H&E) positive inflammatory foci per field using a 200× magnification (min. 5 fields per animal). […]

NASH mouse model [2] = experiment: Periportal fibrosis (% fractional area, Picro Sirius Red) in the AMLN-diet NASH mouse model; assay type: in vivo, male C57BL/6JRj mice; settings: 8 weeks oral dosing after high-fat (AMLN) diet; Compound #157 7 or 20 mg/kg twice daily; FIG. 2
Experimental: as §1, §2
Three weeks prior to study initiation, liver biopsies were taken and animals with steatosis grade <2 and fibrosis stage <1 were deselected from the study. […]
as §3
Portal fibrosis was quantified using Visiopharm Histopathology Image Analysis software (Visioparm, Hørsholm, Denmark). […] Periportal fibrosis was then detected in the periportal zone using the linear Bayesian method and reported as an area fraction.

Compound | Effect on portal/periportal inflammation (NASH mouse model [1]) | Effect on portal/periportal fibrosis (NASH mouse model [2])
CC[C@H]1[C@@H](O)[C@@H]2[C@H](CC[C@]3(C)[C@@H]([C@H](C)CCC(=O)O)CC[C@@H]23)[C@@]2(C)CC[C@@H](O)C[C@@H]12 [OCA, Obeticholic acid, reference compound] | no effect | 
O=C(Nc1scc(C2CCc3ccccc3C2)c1C(=O)O)c1ccccc1 (stereo not drawn) [Compound #157] | resolves | resolves

From patent publication US20240156778A1, “THIOPHENE DERIVATIVES FOR USE IN TREATING PORTAL INFLAMMATION AND FIBROSIS” (ENYO PHARMA, priority 2019, published 2024)
